Source: US8394404B2, “Adhesive material and adhesive preparation” (Nitto Denko Corporation, priority 2004, dated 2013)
“Also recorded” adds a separate entry of the source.

Experiment: in vitro permeability test using the skin removed from a mouse
Format: in vitro ADME
Details: adhesive preparation of the adhesive material of Example 3 with adhesive layer containing 5% ISDN
Protocol: Thus, the adhesive preparation of the present invention is useful as a percutaneously absorbable adhesive preparation for continuous administration of a drug into the body.
An adhesive preparation comprising the adhesive material of the above-mentioned Example 3, which has an adhesive layer containing 5% isosorbide dinitrate (ISDN) was prepared and subjected to an in vitro permeability test using the skin removed from a mouse.

For `O=[N+]([O-])O[C@H]1CO[C@H]2[C@@H]1OC[C@H]2O[N+](=O)[O-]` [ISDN, isosorbide dinitrate], the “percutaneous absorption of ISDN” value was “percutaneous absorbability of ISDN was confirmed; also recorded: percutaneous absorption of ISDN was confirmed”.
